{"source": "paper PMC9637222", "about": "“Autoinducer-2 and bile salts induce c-di-GMP synthesis to repress the T3SS via a T3SS chaperone” (Nature Communications, 2022)", "key": {"SycD (WP_010891209)": {"molecular_target": "T1, SycD (WP_010891209) (Yersinia enterocolitica, UniProt O87496)", "T1 sequence (O87496 1-168)": "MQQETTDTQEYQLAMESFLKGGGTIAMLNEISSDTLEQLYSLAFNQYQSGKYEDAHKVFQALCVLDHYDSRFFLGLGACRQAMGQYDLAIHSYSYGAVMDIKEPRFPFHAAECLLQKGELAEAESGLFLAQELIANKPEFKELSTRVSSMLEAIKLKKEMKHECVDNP", "type": "binding", "conditions": "for Kd: ITC"}, "[1]": {"system": "T2, T3SS ATPase InvC (STM2894)", "T2 construct": "His6 (N, cleaved yes); made in house; host or cells: E. coli BL21(DE3) (pET28a-invC)", "assay": "ITC: c-di-GMP binding to T3SS ATPase InvC", "conditions": "T3SS ATPase from S. Typhimurium", "description": "Supplementary Fig. 25 Neither the T3SS ATPase InvC (STM2894) from S. Typhimurium nor the T3SS ATPase PA1697 from P. aeruginosa interacts with c-di-GMP\nThe binding affinity was evaluated by ITC analysis. ITC data and plots of injected heat for automatic injections of 100 μM c-di-GMP into the sample cell containing 10 μM InvC (a) or PA1697 (b) are shown inthe upper and lower plots, respectively. […]\nthe finalanalysis. Results shown are one representative of three experiments with similar results."}, "SicA": {"molecular_target": "T3, SicA (Salmonella typhimurium, UniProt P69066)", "T3 construct": "His6 (N, cleaved yes); made in house; host or cells: E. coli BL21(DE3), pET-28a (pET28a-sicA)", "T3 sequence (P69066 whole entry)": "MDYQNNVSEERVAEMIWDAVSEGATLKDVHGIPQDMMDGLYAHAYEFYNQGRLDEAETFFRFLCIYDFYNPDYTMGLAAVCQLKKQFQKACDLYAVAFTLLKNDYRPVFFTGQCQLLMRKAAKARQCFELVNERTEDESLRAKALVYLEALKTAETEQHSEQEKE", "assay": "ITC: nucleotide (c-di-GMP, c-di-AMP, cGMP) binding to SicA", "set-up": "species or system S. Typhimurium"}, "PcrH (WP_003113548)": {"molecular_target": "PcrH (WP_003113548) (Pseudomonas aeruginosa, UniProt Q9I325)", "sequence (Q9I325 1-167)": "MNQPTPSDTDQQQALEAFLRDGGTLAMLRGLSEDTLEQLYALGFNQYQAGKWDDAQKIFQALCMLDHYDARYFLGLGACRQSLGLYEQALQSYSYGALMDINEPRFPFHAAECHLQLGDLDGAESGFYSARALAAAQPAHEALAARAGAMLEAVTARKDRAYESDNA", "type": "binding", "conditions": "for Kd: ITC"}, "[2]": {"conditions": "range given for all 6 chaperones (PcrH, IpgC, SycD, CesD, BicA, VcrH), read-out: Kd"}, "[3]": {"conditions": "individual experiments, source data Fig. 5a"}}, "note": "Several values for one entry are separate records, joined by “and”; a condition that tells them apart may be missing. Identical values can stand only once. Like-named read-outs stand apart in the source and are kept apart here.", "data": [{"smiles": "Nc1nc2c(ncn2C2OC3COP(=O)(O)OC4C(COP(=O)(O)OC3C2O)OC(n2cnc3c(=O)[nH]c(N)nc32)C4O)c(=O)[nH]1", "note": "(stereo not shown) [c-di-GMP, Cyclic di-GMP]", "values": [{"measurement": "n, c-di-GMP binding to SycD", "setting": "SycD (WP_010891209); ITC binding stoichiometry n, individual replicates, Supplementary Figure 22c", "result": "1.15 and 1.12"}, {"measurement": "Kd", "setting": "SycD (WP_010891209); individual replicates, Supplementary Figure 22c, read-out: Kd, c-di-GMP binding to SycD", "result": "180 nM and 150 nM and 160 nM"}, {"measurement": "Kd", "setting": "SycD (WP_010891209); [2]", "result": "150 to 220", "unit": "nM"}, {"measurement": "Interaction with T3SS ATPase (in words)", "setting": "[1]", "result": "no interactions"}, {"measurement": "Kd", "setting": "SicA; c-di-GMP : SicA WT, mean ± s.d. of three independent experiments", "result": "210 ± 90", "unit": "nM"}, {"measurement": "Kd", "setting": "SicA; [3]", "result": "320 nM and 100 nM"}, {"measurement": "n (complex stoichiometry)", "setting": "SicA; [3]", "result": "1.14 and 1.11 and 1.21"}, {"measurement": "n, c-di-GMP binding to PcrH", "setting": "PcrH (WP_003113548); ITC binding stoichiometry n, individual replicates, Supplementary Figure 22a", "result": "1.15 and 1.14 and 1.18"}, {"measurement": "Kd", "setting": "PcrH (WP_003113548); individual replicates, Supplementary Figure 22a, read-out: Kd, c-di-GMP binding to PcrH", "result": "130 nM and 190 nM"}, {"measurement": "Kd", "setting": "PcrH (WP_003113548); [2]", "result": "150 to 220", "unit": "nM"}]}]}
